Test results published in patent publication US20210254056A1, “IDENTIFICATION AND TARGETED MODULATION OF GENE SIGNALING NETWORKS” (CAMP4 THERAPEUTICS CORPORATION, priority 2017, published 2021).
Values belong to the compound of their own block, whether it stands above or below them.

Experiments:
[1] = tested on: TF1 cells; assay: Biological activity of maximal compound dosages in TF1 cells; format: cell-based; conditions: 10 μM dose
Description: (§1) The stock for each compound was at 10 mM and were diluted to 100 μM with RMPI+GCMSF (2% DMSO). Cells were collected and resuspended in 8 mL of RPMI+GMCSF at a concentration of 1×10^6 cells/mL. For the TF1 cells, at each well of a 6-well plate were added 1 mL of cells, 300 μL of 100 μM compound dilution, and 1.7 mL of RMPI+GCMSF+1.5% DMSO (1% final DMSO concentration in 3 mL total). One mL of the CI-CB-CD34+ cells, 300 μL of 100 μM compound dilution, and 700 μL of RMPI+GCMSF ([…]) were added to each well of a 6-well plate.
(§2) Compound dilutions were performed as described in Example 1. […] In a 6-well format, there were 1 million cells/well=1 million cells/ml=1000 cells/pl. […].

[2] = tested on: CI-CB-CD34+ cells; assay: Biological activity of maximal compound dosages in CI-CB-CD34+ cells; format: cell-based, human; conditions: 10 μM dose
Description: as §1, §2

[3] = tested on: primary human hepatocytes; assay: RNA-seq of primary human hepatocytes treated with 39 small molecules (pilot and validation); conditions: for significant modulation of gene expression: RNA-seq, p-value≤0.05, primary human hepatocytes, the modulated genes are listed in the block; for Number (#) of genes having significantly changed expression: pilot RNA-seq study of Example 2, significance: FPKM≥0.5, log 2(fold change)≥1, q-value ≤0.05
[4] = tested on: primary human hepatocytes

SMILES: COc1ccc(C2=N[C@@H](c3ccc(Cl)cc3)[C@@H](c3ccc(Cl)cc3)N2C(=O)N2CCNC(=O)C2)c(OC(C)C)c1 (racemic) [Nutlin 3]
response of TF1 cells (biological activity, cell viability) [1]: did not significantly respond
biological activity of CD34+ cells (cell viability) [2]: reduced biological activity

SMILES: Cc1ccc(-c2cn3c4c(sc3n2)CCCC4)cc1 [Cyclic-pifithrin alpha, Cyclic Pifithrin-a]
response of TF1 cells (biological activity, cell viability) [1]: did not significantly respond

Log2 fold changes in gene expression: CYP2C19 [4]: 0.04
Log2 fold changes in gene expression: CYP3A4 [4]: −0.08
SMILES: CC(C)(S)[C@@H](N)C(=O)O [MT-741, Penicillamine(D-)]
Log2 fold changes in gene expression: ACADVL ([3]; RNA-seq validation, duplicates, gene ACADVL): −0.04
Log2 fold changes in gene expression: ACAT2 ([3]; RNA-seq validation, duplicates, gene ACAT2): −0.05
Log2 fold changes in gene expression: ACSL1 ([3]; RNA-seq validation, duplicates, gene ACSL1): 0
Log2 fold changes in gene expression: ACSL5 ([3]; RNA-seq validation, duplicates, gene ACSL5): −0.05
Log2 fold changes in gene expression: AGPAT2 ([3]; RNA-seq validation, duplicates, gene AGPAT2): −0.11
Log2 fold changes in gene expression: AGTR1 ([3]; RNA-seq validation, duplicates, gene AGTR1): −0.04
Log2 fold changes in gene expression: AHSG ([3]; RNA-seq validation, duplicates, gene AHSG): 0.03
Log2 fold changes in gene expression: ALAS1 ([3]; RNA-seq validation, duplicates, gene ALAS1): −0.11
Log2 fold changes in gene expression: AMACR ([3]; RNA-seq validation, duplicates, gene AMACR): −0.24
Log2 fold changes in gene expression: ARG1 ([3]; RNA-seq validation, duplicates, gene ARG1): 0.01
Log2 fold changes in gene expression: CA2 ([3]; RNA-seq validation, duplicates, gene CA2): −0.18
Log2 fold changes in gene expression: CA12 ([3]; RNA-seq validation, duplicates, gene CA12): −0.02
Log2 fold changes in gene expression: CIDEC ([3]; RNA-seq validation, duplicates, gene CIDEC): −0.24
Log2 fold changes in gene expression: COL1A1 ([3]; RNA-seq validation, duplicates, gene COL1A1): 0.14
Log2 fold changes in gene expression: CPS1 ([3]; RNA-seq validation, duplicates, gene CPS1): −0.12
Log2 fold changes in gene expression: CPT1A ([3]; RNA-seq validation, duplicates, gene CPT1A): 0.04
Log2 fold changes in gene expression: CPT2 ([3]; RNA-seq validation, duplicates, gene CPT2): −0.22
Log2 fold changes in gene expression: CYP21A2 ([3]; RNA-seq validation, duplicates, gene CYP21A2): 0.04
Log2 fold changes in gene expression: ECH1 ([3]; RNA-seq validation, duplicates, gene ECH1): −0.14
Log2 fold changes in gene expression: ENO3 ([3]; RNA-seq validation, duplicates, gene ENO3): −0.17
Log2 fold changes in gene expression: ETFDH ([3]; RNA-seq validation, duplicates, gene ETFDH): −0.12
Log2 fold changes in gene expression: FABP1 ([3]; RNA-seq validation, duplicates, gene FABP1): −0.22
Log2 fold changes in gene expression: G6PC ([3]; RNA-seq validation, duplicates, gene G6PC): 0.14
Log2 fold changes in gene expression: GHR ([3]; RNA-seq validation, duplicates, gene GHR): −0.13
Log2 fold changes in gene expression: GLA ([3]; RNA-seq validation, duplicates, gene GLA): −0.06
Log2 fold changes in gene expression: HGD ([3]; RNA-seq validation, duplicates, gene HGD): −0.16
Log2 fold changes in gene expression: HMGCR ([3]; RNA-seq validation, duplicates, gene HMGCR): 0.05
Log2 fold changes in gene expression: HMGCS2 ([3]; RNA-seq validation, duplicates, gene HMGCS2): −0.03
Log2 fold changes in gene expression: HMOX1 ([3]; RNA-seq validation, duplicates, gene HMOX1): 0.05
Log2 fold changes in gene expression: HOGA1 ([3]; RNA-seq validation, duplicates, gene HOGA1): 0
Log2 fold changes in gene expression: HPGD ([3]; RNA-seq validation, duplicates, gene HPGD): −0.06
Log2 fold changes in gene expression: IFT27 ([3]; RNA-seq validation, duplicates, gene IFT27): −0.01
Log2 fold changes in gene expression: LDHA ([3]; RNA-seq validation, duplicates, gene LDHA): 0.08
Log2 fold changes in gene expression: LPIN2 ([3]; RNA-seq validation, duplicates, gene LPIN2): 0.17
Log2 fold changes in gene expression: MOGAT2 ([3]; RNA-seq validation, duplicates, gene MOGAT2): 0.13
Log2 fold changes in gene expression: NCF2 ([3]; RNA-seq validation, duplicates, gene NCF2): −0.19
Log2 fold changes in gene expression: PCSK9 ([3]; RNA-seq validation, duplicates, gene PCSK9): 0.17
Log2 fold changes in gene expression: POR ([3]; RNA-seq validation, duplicates, gene POR): −0.14
Log2 fold changes in gene expression: RMRP ([3]; RNA-seq validation, duplicates, gene RMRP): −1.45
Log2 fold changes in gene expression: SLC2A2 ([3]; RNA-seq validation, duplicates, gene SLC2A2): −0.22
Log2 fold changes in gene expression: SLC6A6 ([3]; RNA-seq validation, duplicates, gene SLC6A6): −0.35
Log2 fold changes in gene expression: SLC25A20 ([3]; RNA-seq validation, duplicates, gene SLC25A20): −0.31
Log2 fold changes in gene expression: SLC37A4 ([3]; RNA-seq validation, duplicates, gene SLC37A4): 0.09
Log2 fold changes in gene expression: SLC51B ([3]; RNA-seq validation, duplicates, gene SLC51B): −0.08
Log2 fold changes in gene expression: SULT2A1 ([3]; RNA-seq validation, duplicates, gene SULT2A1): −0.18
Log2 fold changes in gene expression: TAT ([3]; RNA-seq validation, duplicates, gene TAT): 0.09
Log2 fold changes in gene expression: TDO2 ([3]; RNA-seq validation, duplicates, gene TDO2): −0.14
Log2 fold changes in gene expression: TMEM135 ([3]; RNA-seq validation, duplicates, gene TMEM135): −0.16
Log2 fold changes in gene expression: TNFSF11 ([3]; RNA-seq validation, duplicates, gene TNFSF11): 0.04
Log2 fold changes in gene expression: VLDLR ([3]; RNA-seq validation, duplicates, gene VLDLR): 0.09
significant modulation of gene expression [3]: significantly (p-value≤0.05) modulate
Number (#) of genes having significantly changed expression [3]: 9

Log2 fold changes in gene expression: CYP2C19 [4]: 0.07
Log2 fold changes in gene expression: CYP3A4 [4]: 0.02
SMILES: C[C@H](CS)C(=O)N1CCC[C@H]1C(=O)O [MT-835, Captopril]
significant modulation of gene expression [3]: significantly (p-value≤0.05) modulate
Number (#) of genes having significantly changed expression [3]: 12

SMILES: COc1ccc(Cc2nccc3cc(OC)c(OC)cc23)cc1OC [MT-913, Papaverine]
significant modulation of gene expression [3]: significantly (p-value≤0.05) modulate
Number (#) of genes having significantly changed expression [3]: 12
Log2 fold changes in gene expression: CYP2C19 [4]: 0.09
Log2 fold changes in gene expression: CYP3A4 [4]: 0.06

SMILES: COc1ccc(C2=N[C@@H](c3ccc(Cl)cc3)[C@@H](c3ccc(Cl)cc3)N2C(=O)N2CCNC(=O)C2)c(OC(C)C)c1 [Nutlin 3a]
response of TF1 cells (biological activity, cell viability) [1]: did not significantly respond
biological activity of CD34+ cells (cell viability) [2]: reduced biological activity

SMILES: Cc1ccc(C(=O)Cn2c3c(sc2=N)CCCC3)cc1 [Pifithrin alpha, Pifithrin-α]
response of TF1 cells (biological activity, cell viability) [1]: did not significantly respond
biological activity of CD34+ cells (cell viability) [2]: little or no effect
